Source: paper PMC7099204, “Geranylated Coumarins From Thai Medicinal Plant Mammea siamensis With Testosterone 5α-Reductase Inhibitory Activity” (Frontiers in Chemistry, 2020)
Read-outs that look alike come from different tables or passages of the source.

Molecular target: T1, testosterone 5α-reductase (Rattus norvegicus, UniProt P24008)
T1 sequence (P24008 1-259): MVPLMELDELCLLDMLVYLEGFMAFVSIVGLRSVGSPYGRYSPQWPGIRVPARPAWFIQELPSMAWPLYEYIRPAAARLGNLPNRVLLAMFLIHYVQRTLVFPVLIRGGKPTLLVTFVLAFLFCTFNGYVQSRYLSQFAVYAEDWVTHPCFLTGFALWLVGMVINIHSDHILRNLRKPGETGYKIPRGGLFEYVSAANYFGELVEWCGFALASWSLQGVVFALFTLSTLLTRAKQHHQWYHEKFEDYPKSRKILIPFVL
Assay: Assay for testosterone 5α-reductase inhibitory activity (rat liver S9 fractions, HPLC of remaining testosterone)
Type: biochemical
Protocol: The experiment was performed in accordance with previously reported methods (Matsuda et al., [2001]; Lee et al., [2012]; Koseki et al., [2015]) with slight modifications. In brief, the assay was performed in 48-well microplates (Sumitomo Bakelite Co., Ltd., Tokyo, Japan). The reaction solution was pre-incubated with or without a test sample (5 μL/well, dissolved in DMSO), in a potassium phosphate buffer (40 mM, pH 6.5, 490 μL/well) containing substrate (0.35 nmol of testosterone, Tokyo Chemical Industry Co., Ltd., Tokyo, Japan) and NADPH (10 nmol, Oriental Yeast Co., Ltd., Tokyo, Japan) at room temperature (25°C) for 20 min. The enzymatic reaction was initiated by the addition of rat liver S9 fractions (10 μL/well, dissolved in the phosphate buffer, 20.6 μg/well, Oriental Yeast Co., Ltd., Tokyo, Japan, lot no. 109031513) at 37°C for 30 min. After incubation, the reaction mixture was immediately heated in boiling water for 2 min to stop the reaction. Then the reaction solution of each well was transferred to a microtube and extracted with 500 μL of EtOAc. After the microtube was centrifuged (10,000 rpm, 5 min), an aliquot of each EtOAc phase (300 μL) was transferred into another tube. The solvent in the tube was evaporated and the residue was dissolved in 30 μL of acetonitrile containing an internal standard (I.S.) fludrocortisone acetate (20 μg/mL, Sigma-Aldrich, Co., LLC, St. Louis, USA). […] The 5α-reductase inhibitory activity was determined from the following equation using the peak area ratios (r = testosterone/I.S.). Experiments were performed in triplicate or quadruple, and IC50 values were determined graphically. The 5α-reductase inhibitor finasteride (Tokyo Chemical Industry Co., Ltd., Tokyo, Japan) was used as a reference compound.
Inhibition(%)=[r(T)-r(C)/r(B)-r(C)]× 100
Control (C): enzyme (+), test sample (–); Test (T): enzyme (+), test sample (+); Blank (B): enzyme (–), test sample (+).

[1] = 100 μM, mean ± S.E.M. (N = 3–4), read-out: Inhibition (%)
[2] = 3 μM, mean ± S.E.M. (N = 3–4), read-out: Inhibition (%)
[3] = 10 μM, mean ± S.E.M. (N = 3–4), read-out: Inhibition (%)
[4] = 30 μM, mean ± S.E.M. (N = 3–4), read-out: Inhibition (%)

With `CCCC(=O)c1c(O)c2c(c3c([C@@H](O)CC)cc(=O)oc13)OC(C)(CCC=C(C)C)C=C2` (some centres unmarked) [Compound 1, kayeassamin I] the inhibition at 100 µM [1] was 37.5 ± 11.1%.

With `CC[C@H](O)c1cc(=O)oc2c(C(=O)CC(C)C)c(O)c3c(c12)OC(C)(CCC=C(C)C)C=C3` (some centres unmarked) [Compound 2, Mammeasin E] the inhibition at 3 µM [2] was 20 ± 9.2%, the inhibition at 10 µM [3] was 30.9 ± 9.3% and the inhibition at 30 µM [4] was 53.9 ± 12.7%. It also gave an inhibition at 100 µM [1] of 89.5 ± 15.8%.

For `CCC(C)C(=O)c1c(O)c2c(c3c([C@@H](O)CC)cc(=O)oc13)OC(C)(CCC=C(C)C)C=C2` (some centres unmarked) [Compound 3, Mammeasin F], the inhibition at 100 µM [1] was 14.9 ± 5.4%.

Compound `CCCC(=O)c1c(O)c(C/C=C(\C)CCC=C(C)C)c(O)c2c([C@H](CC)OC(C)=O)cc(=O)oc12` [Compound 4, Mammeasin A] has an inhibition at 3 µM [2] of 12.6 ± 10.5%, an inhibition at 10 µM [3] of 40.8 ± 12.8% and an inhibition at 30 µM [4] of 53.1 ± 5.2%. For the same compound, the inhibition at 100 µM [1] was 129 ± 20.9%.

`CC[C@H](OC(C)=O)c1cc(=O)oc2c(C(=O)CC(C)C)c(O)c(C/C=C(\C)CCC=C(C)C)c(O)c12` [Compound 5, Mammeasin B] gave an inhibition at 3 µM [2] of 35.3 ± 6.1%, an inhibition at 10 µM [3] of 39.9 ± 4.2% and an inhibition at 30 µM [4] of 58.8 ± 9.6%. It also gave an inhibition at 100 µM [1] of 83.7 ± 4.3%.

Compound `CC(C)=CCC/C(C)=C/Cc1c(O)c(C(=O)C(C)C)c2oc(=O)cc3c2c1OC(C)C3` (centres unmarked) [Compound 6, Mammeasin C] has an inhibition at 3 µM [2] of 3.4 ± 13.1%, an inhibition at 10 µM [3] of 8.8 ± 10% and an inhibition at 30 µM [4] of 17.9 ± 10.6%. The inhibition at 100 µM [1] was 52.9 ± 22.5%.

With `CCCC(=O)c1c(O)c(C/C=C(\C)CCC=C(C)C)c2c3c(cc(=O)oc13)CC(C)O2` (centres unmarked) [Compound 7, Mammeasin D] the inhibition at 100 µM [1] was 16.4 ± 5.8%.

With `CCCC(=O)c1c(O)c(C/C=C(\C)CCC=C(C)C)c(O)c2c([C@@H](O)CC)cc(=O)oc12` [Compound 8, kayeassamin A] the inhibition at 100 µM [1] was 20.2 ± 7.9%.

`CCCC(=O)c1c(O)c(CC=C(C)C)c2oc(=O)cc([C@@H](O)CC)c2c1O` [Compound 9, Kayeassamin E] gave an inhibition at 3 µM [2] of 2.6 ± 7.1%, an inhibition at 10 µM [3] of 11.5 ± 12.7% and an inhibition at 30 µM [4] of 51.1 ± 12.4%. For the same compound, the inhibition at 100 µM [1] was 79.9 ± 12.7%.

`CCC(C)C(=O)c1c(O)c(CC=C(C)C)c2oc(=O)cc([C@@H](O)CC)c2c1O` (some centres unmarked) [Compound 10, Kayeassamin F] gave an inhibition at 3 µM [2] of 4.6 ± 1.1%, an inhibition at 10 µM [3] of 41 ± 6.4% and an inhibition at 30 µM [4] of 68.6 ± 3.9%. For the same compound, the inhibition at 100 µM [1] was 94.6 ± 1.3%.

Compound `CC[C@H](O)c1cc(=O)oc2c(CC=C(C)C)c(O)c(C(=O)CC(C)C)c(O)c12` [Compound 11, Kayeassamin G] has an inhibition at 3 µM [2] of 14.4 ± 9.7%, an inhibition at 10 µM [3] of 37.5 ± 6.9% and an inhibition at 30 µM [4] of 61.3 ± 3%. For the same compound, the inhibition at 100 µM [1] was 62.3 ± 3.2%.

Work on `CCC(C)C(=O)c1c(O)c(C/C=C(\C)CCC=C(C)C)c(O)c2c([C@H](CC)OC(C)=O)cc(=O)oc12` (some centres unmarked) [Compound 12, surangin B] yielded an inhibition at 100 µM [1] of 38.5 ± 5%.

`CCC(C)C(=O)c1c(O)c(C/C=C(\C)CCC=C(C)C)c(O)c2c([C@@H](O)CC)cc(=O)oc12` (some centres unmarked) [Compound 13, surangin C] showed an inhibition at 3 µM [2] of 28.2 ± 7.7%, an inhibition at 10 µM [3] of 63.6 ± 8.3% and an inhibition at 30 µM [4] of 114 ± 6.7%. For the same compound, the inhibition at 100 µM [1] was 124 ± 9.6%.

Work on `CC(C)=CCc1c(O)c(C(=O)CC(C)C)c(O)c2c(-c3ccccc3)cc(=O)oc12` [Compound 17, Mammea A/AA] yielded an inhibition at 3 µM of 18.9 ± 7%, an inhibition at 10 µM of 32 ± 3.9% and an inhibition at 30 µM of 62 ± 2.8%. It also gave an inhibition at 100 µM of 92.9 ± 5.3%.

Compound `CCC(C)C(=O)c1c(O)c(CC=C(C)C)c2oc(=O)cc(-c3ccccc3)c2c1O` (centres unmarked) [Compound 18, mammea A/AB] has an inhibition at 100 µM [1] of 23.3 ± 7.2%.

Work on `CCCC(=O)c1c(O)c(CC=C(C)C)c2oc(=O)cc(-c3ccccc3)c2c1O` [Compound 19, Mammea A/AC] yielded an inhibition at 100 µM [1] of 41.5 ± 11.4%.

Compound `CC(C)=CCc1c(O)c(C(=O)C(C)C)c(O)c2c(-c3ccccc3)cc(=O)oc12` [Compound 20, Mammea A/AD] has an inhibition at 100 µM [1] of 30.3 ± 2.1%.

With `CC(C)CC(=O)c1c2c(c3oc(=O)cc(-c4ccccc4)c3c1O)C=CC(C)(C)O2` [Compound 24, Mammea A/AA cyclo D] the inhibition at 100 µM [1] was 38.3 ± 3.8%.

Work on `CCC(C)C(=O)c1c2c(c3oc(=O)cc(-c4ccccc4)c3c1O)C=CC(C)(C)O2` (centres unmarked) [Compound 25, Mammea A/AB cyclo D] yielded an inhibition at 100 µM [1] of 6.7 ± 4.5%.

For `CCCC(=O)c1c2c(c3oc(=O)cc(-c4ccccc4)c3c1O)C=CC(C)(C)O2` [Compound 26, Mammea A/AC cyclo D], the inhibition at 100 µM [1] was 32 ± 1.9%.

`CCCc1cc(=O)oc2c3c(c(C(=O)C(C)CC)c(O)c12)OC(C)(C)C=C3` (centres unmarked) [Compound 27, Mammea B/AB cyclo D] was tested, and the inhibition at 100 µM [1] was 40.7 ± 18.1%.

Work on `CCCC(=O)c1c2c(c3oc(=O)cc(CCC)c3c1O)C=CC(C)(C)O2` [Compound 28, Mammea B/AC cyclo D] yielded an inhibition at 100 µM [1] of 27.3 ± 2%.

In the case of `CCCC(=O)c1c(O)c2c(c3c(C(CC)OC(C)=O)cc(=O)oc13)OC(C)(C)C=C2` (centres unmarked) [Compound 29, Mammea E/BC cyclo D], the inhibition at 100 µM [1] is reported as 31.9 ± 3.9%.

For `CC[C@H](O)c1cc(=O)oc2c3c(c(C(=O)CC(C)C)c(O)c12)OC(C)(C)C=C3` [Compound 31, deacetylmammea E/AA cyclo D], the inhibition at 100 µM [1] was 37.1 ± 4%.

`CCC(C)C(=O)c1c(O)c2c(c3c([C@@H](O)CC)cc(=O)oc13)OC(C)(C)C=C2` (some centres unmarked) [Compound 32, deacetylmammea E/BB cyclo D] was tested, and the inhibition at 100 µM [1] was 31.9 ± 8.8%.

`CCCC(=O)c1c(O)c2c(c3c([C@@H](O)CC)cc(=O)oc13)OC(C)(C)C=C2` [Compound 33, deacetylmammea E/BC cyclo D] showed an inhibition at 100 µM [1] of 40.8 ± 4.1%.

`CC(C)CC(=O)c1c2c(c3oc(=O)cc(-c4ccccc4)c3c1O)CC(C(C)(C)O)O2` (centres unmarked) [Compound 34, mammea A/AA cyclo F] was tested, and the inhibition at 3 µM [2] was 13.8 ± 6.7%, the inhibition at 10 µM [3] was 21.6 ± 10.3% and the inhibition at 30 µM [4] was 62.8 ± 18.1%. The inhibition at 100 µM [1] was 57 ± 15.7%.

`CCCC(=O)c1c2c(c3oc(=O)cc(-c4ccccc4)c3c1O)CC(C(C)(C)O)O2` (centres unmarked) [Compound 35, mammea A/AC cyclo F] gave an inhibition at 3 µM [2] of 4.2 ± 6.1%, an inhibition at 10 µM [3] of 18.4 ± 6.9% and an inhibition at 30 µM [4] of 32.5 ± 6%. It also gave an inhibition at 100 µM [1] of 54.8 ± 23.2%.

For `CC(C)(C)NC(=O)[C@H]1CC[C@H]2[C@@H]3CC[C@H]4NC(=O)C=C[C@]4(C)[C@H]3CC[C@]12C` [Finasteride, finasteride, reference compound], the inhibition at 0.1 µM was 48.5 ± 10.9%, the inhibition at 0.3 µM was 61.8 ± 11.4% and the inhibition at 1 µM was 76 ± 9.8%. The inhibition at 3 µM was 91.3 ± 13.1%.
